Molecules are shown by their SMILES. Activity calls are given as the source filed them. The calls are words filed in the database; no cut-off is given here. A value given as a limit tells only on which side of the number the result lay.

Assay [1] has as its target T1, Protein deacetylase HDAC6 (Homo sapiens) (UniProt Q9UBN7).
T1 sequence (whole entry): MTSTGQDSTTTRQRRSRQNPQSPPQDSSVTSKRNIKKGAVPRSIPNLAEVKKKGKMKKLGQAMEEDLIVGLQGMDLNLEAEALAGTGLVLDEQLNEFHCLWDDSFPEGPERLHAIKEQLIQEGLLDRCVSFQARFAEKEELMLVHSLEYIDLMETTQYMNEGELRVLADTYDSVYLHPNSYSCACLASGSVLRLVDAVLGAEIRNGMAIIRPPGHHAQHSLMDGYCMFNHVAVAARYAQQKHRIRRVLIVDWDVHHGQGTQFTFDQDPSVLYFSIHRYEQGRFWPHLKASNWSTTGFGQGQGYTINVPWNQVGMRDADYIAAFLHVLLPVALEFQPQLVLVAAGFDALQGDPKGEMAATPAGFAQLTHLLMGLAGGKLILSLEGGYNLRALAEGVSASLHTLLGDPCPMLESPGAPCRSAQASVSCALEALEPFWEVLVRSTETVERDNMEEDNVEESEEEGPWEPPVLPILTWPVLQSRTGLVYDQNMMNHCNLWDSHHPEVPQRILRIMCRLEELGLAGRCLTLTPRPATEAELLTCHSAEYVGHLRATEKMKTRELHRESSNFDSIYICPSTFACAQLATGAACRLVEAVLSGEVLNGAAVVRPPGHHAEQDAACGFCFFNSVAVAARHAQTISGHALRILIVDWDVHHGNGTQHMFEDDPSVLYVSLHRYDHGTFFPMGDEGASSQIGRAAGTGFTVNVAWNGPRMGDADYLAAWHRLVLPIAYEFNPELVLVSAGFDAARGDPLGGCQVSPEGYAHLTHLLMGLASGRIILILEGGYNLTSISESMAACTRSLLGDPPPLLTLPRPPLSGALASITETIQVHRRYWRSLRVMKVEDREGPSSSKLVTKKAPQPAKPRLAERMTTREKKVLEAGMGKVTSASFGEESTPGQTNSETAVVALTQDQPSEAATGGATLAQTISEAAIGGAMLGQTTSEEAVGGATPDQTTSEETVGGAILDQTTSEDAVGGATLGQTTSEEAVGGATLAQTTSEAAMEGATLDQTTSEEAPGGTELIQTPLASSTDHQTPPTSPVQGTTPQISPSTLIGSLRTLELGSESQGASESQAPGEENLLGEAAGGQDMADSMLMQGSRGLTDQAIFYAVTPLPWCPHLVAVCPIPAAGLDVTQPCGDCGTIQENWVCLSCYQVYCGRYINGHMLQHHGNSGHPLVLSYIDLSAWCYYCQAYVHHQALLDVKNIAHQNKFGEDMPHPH
Kind of assay: Inhibition of HDAC6 in human CAL27 cells assessed as acetylation of alpha-tubulin at […] measured after 24 hrs by immunoblot analysis. Format: cell-based. On the technique in general: Immunoblotting shows a protein as a band on a membrane.

The target in assay [2] is T1, Protein deacetylase HDAC6 (Homo sapiens). The assay can be described thus: Inhibition of HDAC6 in human Cal27CisR cells assessed as acetylation of alpha-tubulin at […] measured after 24 hrs by immunoblot analysis. Format: cell-based.
Assay [3] deals with T2, Class 1 histone deacetylase (Homo sapiens, UniProt Q13547+O15379+Q92769+Q9BY41). Kind of assay: Inhibition of class 1 HDAC in human Cal27CisR cells assessed as increase in histone H3 acetylation at […] measured after 24 hrs by immunoblot analysis. The format is cell-based.
T2 sequence (O15379 whole entry, looked up): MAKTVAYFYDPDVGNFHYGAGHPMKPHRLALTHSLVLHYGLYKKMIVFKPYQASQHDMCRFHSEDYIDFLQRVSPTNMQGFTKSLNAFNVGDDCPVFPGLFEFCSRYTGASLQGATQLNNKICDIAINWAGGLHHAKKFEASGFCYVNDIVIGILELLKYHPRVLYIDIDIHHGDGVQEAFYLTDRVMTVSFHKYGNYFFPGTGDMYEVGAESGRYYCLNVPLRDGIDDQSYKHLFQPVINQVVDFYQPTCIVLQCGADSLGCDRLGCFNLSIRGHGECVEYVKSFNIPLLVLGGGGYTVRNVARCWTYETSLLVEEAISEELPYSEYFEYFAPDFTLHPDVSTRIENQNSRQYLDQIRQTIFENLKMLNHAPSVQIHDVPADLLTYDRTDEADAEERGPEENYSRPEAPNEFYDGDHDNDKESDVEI
T2 sequence (Q13547 whole entry, looked up): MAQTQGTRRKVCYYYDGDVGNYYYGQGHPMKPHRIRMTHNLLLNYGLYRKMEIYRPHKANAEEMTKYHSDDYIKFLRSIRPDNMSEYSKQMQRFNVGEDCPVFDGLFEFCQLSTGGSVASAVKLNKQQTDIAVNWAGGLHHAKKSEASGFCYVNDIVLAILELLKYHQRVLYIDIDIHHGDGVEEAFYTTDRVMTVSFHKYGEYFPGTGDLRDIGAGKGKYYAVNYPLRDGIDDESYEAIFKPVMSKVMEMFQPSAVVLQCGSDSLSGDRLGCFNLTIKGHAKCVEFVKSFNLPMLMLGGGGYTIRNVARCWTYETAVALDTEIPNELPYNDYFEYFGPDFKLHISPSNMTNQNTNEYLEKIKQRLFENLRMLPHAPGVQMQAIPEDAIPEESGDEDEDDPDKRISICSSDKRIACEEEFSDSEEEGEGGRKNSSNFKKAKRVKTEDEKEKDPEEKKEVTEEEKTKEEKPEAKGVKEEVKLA
T2 sequence (Q92769 whole entry, looked up): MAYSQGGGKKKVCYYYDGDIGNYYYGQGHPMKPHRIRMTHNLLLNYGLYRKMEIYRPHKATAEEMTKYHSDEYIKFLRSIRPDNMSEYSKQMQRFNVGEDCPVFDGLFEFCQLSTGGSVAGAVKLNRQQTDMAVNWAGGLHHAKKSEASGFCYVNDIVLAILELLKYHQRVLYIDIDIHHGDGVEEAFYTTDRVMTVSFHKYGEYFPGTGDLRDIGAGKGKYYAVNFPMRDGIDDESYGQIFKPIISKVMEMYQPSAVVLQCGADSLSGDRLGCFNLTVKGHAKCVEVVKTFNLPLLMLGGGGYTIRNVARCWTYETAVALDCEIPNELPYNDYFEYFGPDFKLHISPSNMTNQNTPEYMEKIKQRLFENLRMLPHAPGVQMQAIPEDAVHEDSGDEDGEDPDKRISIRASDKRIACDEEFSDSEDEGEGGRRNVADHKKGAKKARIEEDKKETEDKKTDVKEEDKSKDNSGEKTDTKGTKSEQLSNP
T2 sequence (Q9BY41 whole entry, looked up): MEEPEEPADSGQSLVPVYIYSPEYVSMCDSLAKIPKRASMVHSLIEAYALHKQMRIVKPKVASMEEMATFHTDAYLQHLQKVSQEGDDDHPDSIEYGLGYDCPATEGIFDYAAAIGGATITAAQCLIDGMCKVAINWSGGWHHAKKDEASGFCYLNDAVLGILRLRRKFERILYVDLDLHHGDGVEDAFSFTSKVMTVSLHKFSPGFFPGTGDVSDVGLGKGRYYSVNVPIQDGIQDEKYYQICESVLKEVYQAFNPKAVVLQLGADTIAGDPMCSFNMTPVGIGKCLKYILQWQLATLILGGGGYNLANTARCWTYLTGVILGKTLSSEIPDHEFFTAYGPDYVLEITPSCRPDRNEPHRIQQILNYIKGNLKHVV
The nature of assay [4]: Induction of apoptosis in human Cal27CisR cells assessed as accumulation at sub-G1 phase at […] after 48 hrs by propidium iodide staining based flow cytometry relative to control. The format is functional. For orientation: Flow cytometry measures light scatter and fluorescence of single cells or particles in a stream.
Assay [5] concerns the target T2, Class 1 histone deacetylase. The assay can be described thus: Inhibition of class 1 HDAC in human Cal27CisR cells assessed as potentiation of cisplatin-induced cytotoxicity by measuring cisplatin IC50 at […] preincubated for 48 hrs followed by cisplatin addition and measured after 72 hrs by MTT assay (reference value: 63.2 uM). Format: cell-based. On the technique in general: Tetrazolium dyes change colour on reduction, which living cells bring about.

Assay [6] has the same target. The assay can be described thus: Inhibition of class 1 HDAC in human CAL27 cells assessed as potentiation of cisplatin-induced apoptosis by measuring increase in accumulation at sub-G1 phase at […] preincubated for 48 hrs followed by cisplatin addition and measured after 24 hrs by propidium iodide staining based flow cytometry. The note with it: CAL-27. Format: cell-based.

Assay [7] shares this target. The assay can be described thus: Inhibition of class 1 HDAC in human Cal27CisR cells assessed as potentiation of cisplatin-induced cytotoxicity by measuring fold reduction in cisplatin IC50 at […] preincubated for 48 hrs followed by cisplatin addition and measured after 72 hrs by MTT assay relative to cisplatin IC50. The format is cell-based.
A further assay deals with CAL-27. Kind of assay: Induction of apoptosis in human CAL27 cells assessed as accumulation at sub-G1 phase at […] after 48 hrs by propidium iodide staining based flow cytometry relative to control. The format is functional.
Assay [8] concerns the target T2, Class 1 histone deacetylase.
Description: Inhibition of class 1 HDAC in human Cal27CisR cells assessed as potentiation of cisplatin-induced cytotoxicity by measuring combination index at 0.10 uM in presence of 1 uM cisplatin by MTT assay based Chou-Talalay analysis
For assay [9] the target is unchanged. The format is cell-based.
The target is the same in assay [10]. This is another data set of the same source.
Assay [11] shares this target. Kind of assay: Inhibition of class 1 HDAC in human Cal27CisR cells assessed as potentiation of cisplatin-induced apoptosis assessed as increase in caspase-3/7 activation at 5 uM preincubated for 48 hrs followed by cisplatin addition and measured after 24 hrs in presence of pan caspase inhibitor QVD by CellEvent caspase 3/7 green detection reagent/Hoechst 33342 staining based imaging analysis. Format: cell-based.

The target in assay [12] is T1, Protein deacetylase HDAC6 (Homo sapiens). The assay can be described thus: Inhibition of HDAC6 in human CAL27 cells assessed as acetylation of alpha-tubulin at 5 uM measured after 24 hrs by immunoblot analysis. Format: cell-based.
The target in assay [13] is T2, Class 1 histone deacetylase. Kind of assay: Inhibition of class 1 HDAC in human CAL27 cells assessed as potentiation of cisplatin-induced cytotoxicity by measuring combination index at 5 uM in presence of 1 uM cisplatin by MTT assay based Chou-Talalay analysis. Particulars: CAL-27. The format is cell-based.
Assay [14] has the same target. Kind of assay: Inhibition of class 1 HDAC in human CAL27 cells assessed as potentiation of cisplatin-induced cytotoxicity by measuring fold reduction in cisplatin IC50 at 5 uM preincubated for 48 hrs followed by cisplatin addition and measured after 72 hrs by MTT assay relative to cisplatin IC50. Format: cell-based. The note with it: CAL-27.
For assay [15] the target is unchanged. The assay can be described thus: Inhibition of class 1 HDAC in human CAL27 cells assessed as potentiation of cisplatin-induced cytotoxicity by measuring combination index at 5 uM in presence of 0.1 uM cisplatin by MTT assay based Chou-Talalay analysis. The format is cell-based. Particulars: CAL-27.
For assay [16] the target is unchanged. The assay can be described thus: Inhibition of class 1 HDAC in human Cal27CisR cells assessed as potentiation of cisplatin-induced cytotoxicity by measuring fold reduction in cisplatin IC50 at 5 uM preincubated for 48 hrs followed by cisplatin addition and measured after 72 hrs by MTT assay relative to cisplatin IC50. Format: cell-based.
Assay [17] has the same target. Kind of assay: Inhibition of class 1 HDAC in human Cal27CisR cells assessed as potentiation of cisplatin-induced cytotoxicity by measuring combination index at 5 uM in presence of 100 uM cisplatin by MTT assay based Chou-Talalay analysis. The format is cell-based.

The IC50 is the point on the concentration scale where inhibition reaches its midpoint. Take `Cc1cc(C)cc(C(=O)N(CC(=O)NCc2ccccc2)Cc2ccc(C(=O)Nc3cc(-c4ccccc4)ccc3N)cc2)c1`: the inhibition result in assay [1] and in [2] was “inactive” each time. Besides, the inhibition entry in assay [3] and in assay [6] was “Active” each time. The values for the Activity (in assay [4]; with CAL-27) were 7.45% and 6.27%, respectively. The IC50 in [5] turned out to be 12 µM. Moreover, in assay [7], the Ratio IC50 stood at 5.27.
As to `CN(C)c1ccc(C(=O)N(CC(=O)NCc2ccccc2)Cc2ccc(C(=O)Nc3ccccc3N)cc2)cc1`, the CI in assay [8] and in [10] was less than 0.2 each time. This compound also came in with a concentration for half-maximal inhibition (IC50) in [9] of 8.42 µM.
In the case of `Cc1cc(C)cc(C(=O)N(CCCCCC(=O)Nc2cc(-c3ccccc3)ccc2N)CC(=O)NCc2ccccc2)c1`, the inhibition result in [11] and in [12] was “inactive” throughout. Further, the CI in [13] is 0.76; in [15], less than 0.2; in assay [17], 0.05. Moreover, the Ratio IC50 in assay [14] worked out at 5.26; in assay [16], 4.03.

The values above are taken from ChEMBL document CHEMBL4334526, “Synthesis of Peptoid-Based Class I-Selective Histone Deacetylase Inhibitors with Chemosensitizing Properties” (J Med Chem, 2019).
